According to patent publication US10343992B2, “1-cyano-pyrrolidine compounds as USP30 inhibitors” (MISSION THERAPEUTICS LIMITED, priority 2015, dated 2019):

These compounds were tested against USP30 (Homo sapiens (Human), UniProt Q70CQ3) (assay: USP30 biochemical FP or FI IC50 assay). Settings: read-out: IC50 range.
Description: USP30 Biochemical IC50 Assay
Dilution plates were prepared at 21 times the final concentration (2100 μM for a final concentration of 100 μM) in 50% DMSO in a 96-well polypropylene V-bottom plate (Greiner #651201). A typical 8-point dilution series would be 100, 30, 10, 3, 1, 0.3, 0.1, 0.03 μM final. Reactions were performed in duplicate in black 384 well plates (small volume, Greiner 784076) in a final reaction volume of 21 μl. Either 1 μl of 50% DMSO or diluted compound was added to the plate. USP30 was diluted in reaction buffer (40 mM Tris, pH 7.5, 0.005% Tween 20, 0.5 mg/ml BSA, 5 mM—beta-mercaptoethanol) to the equivalent of 0.05 μl/well and 10 μl of diluted USP30 was added to the compound. Enzyme and compound were incubated for 30 min at room temp. Reactions were initiated by the addition of 50 nM of TAMRA labelled peptide linked to ubiquitin via an iso-peptide bond as fluorescence polarisation substrate. Reactions were read immediately after addition of substrate and following a 2 hr incubation at room temperature. Readings were performed on a Pherastar Plus (BMG Labtech). λ Excitation 540 nm; λ Emission 590 nm.
USP30 Biochemical Fluorescence Intensity IC50 Assay
Dilution plates were prepared at 21 times the final concentration (2100 μM for a final concentration of 100 μM) in 50% DMSO in a 96-well polypropylene V-bottom plate (Greiner #651201). A typical 8-point dilution series would be 100, 30, 10, 3, 1, 0.3, 0.1, 0.03 μM final. Reactions were performed in duplicate in black 384 well plates (small volume, Greiner 784076) in a final reaction volume of 21 μl.
Either 1 μl of 50% DMSO or diluted compound was added to the plate. USP30 was diluted in reaction buffer (40 mM Tris, pH 7.5, 0.005% Tween 20, 0.5 mg/ml BSA, 5 mM—beta-mercaptoethanol) to the equivalent of 0.001 μl/well and 10 μl of diluted USP30 was added to the compound. Enzyme and compound were incubated for 30 min at room temp. Reactions were initiated by the addition of Ubiquitin-Rhodamine 110 (U-555; Boston Biochem) at a final concentration of 100 nM. Reactions were read immediately after addition of substrate and following a 2 h incubation at room temperature. Readings were performed on a Pherastar Plus (BMG Labtech). λ Excitation 487 nm; λ Emission 535 nm.

USP30, sequence (Q70CQ3 57-517): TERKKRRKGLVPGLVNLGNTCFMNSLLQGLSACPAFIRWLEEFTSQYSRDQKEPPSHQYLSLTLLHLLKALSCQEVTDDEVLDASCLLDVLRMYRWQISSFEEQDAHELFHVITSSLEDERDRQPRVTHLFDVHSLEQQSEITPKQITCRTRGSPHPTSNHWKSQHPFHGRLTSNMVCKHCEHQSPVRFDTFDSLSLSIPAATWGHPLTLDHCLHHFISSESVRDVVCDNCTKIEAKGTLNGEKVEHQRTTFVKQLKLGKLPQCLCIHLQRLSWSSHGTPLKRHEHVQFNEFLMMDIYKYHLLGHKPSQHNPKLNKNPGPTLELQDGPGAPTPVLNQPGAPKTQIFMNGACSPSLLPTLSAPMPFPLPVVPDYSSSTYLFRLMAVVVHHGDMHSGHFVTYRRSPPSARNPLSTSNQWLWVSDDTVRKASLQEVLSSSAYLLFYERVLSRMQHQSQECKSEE

Row | IC50 [nM] | SMILES
1 | 100 to 1000 | N#CN1CC[C@@H](NC(=O)c2cc(-c3ccncc3)no2)C1 [Example 64, (R)—N-(1-cyanopyrrolidin-3-yl)-3-(pyridin-4-yl)isoxazole-5-carboxamide]
2 | 100 to 1000 | N#CN1CC[C@@H](NC(=O)c2cc(-c3cccnc3)no2)C1 [Example 65, (R)-N-(1-cyanopyrrolidin-3-yl)-3-(pyridin-3-yl)isoxazole-5-carboxamide]
3 | 100 to 1000 | N#CN1CC[C@@H](NC(=O)c2cc(-c3ccccn3)no2)C1 [Example 66, (R)-N-(1-cyanopyrrolidin-3-yl)-3-(pyridin-2-yl)isoxazole-5-carboxamide]
4 | 100 to 1000 | N#CN1CC[C@@H](NC(=O)c2cc(-c3ccccc3)cnn2)C1 [Example 67, (R)—N-(1-cyanopyrrolidin-3-yl)-5-phenylpyridazine-3-carboxamide]
5 | 100 to 1000 | CN(C(=O)c1ccc(-c2ccccc2)cc1)C1CCN(C#N)C1 (stereo not shown) [Example 68, N-(1-cyanopyrrolidin-3-yl)-N-methyl-[1,1′-biphenyl]-4-carboxamide]
6 | 1000 to 10000 | C[C@H]1CN(C#N)C[C@@H]1NC(=O)c1ncc(-c2ccccc2)s1 [Example 69, N-((3R,4S)-1-cyano-4-methylpyrrolidin-3-yl)-5-phenylthiazole-2-carboxamide]
7 | < 100 | C[C@@H]1CN(C#N)C[C@H]1NC(=O)c1ncc(-c2ccccc2)s1 [Example 70, N-((3S,4R)-1-cyano-4-methylpyrrolidin-3-yl)-5-phenylthiazole-2-carboxamide]
8 | 100 to 1000 | C[C@H]1CN(C#N)C[C@@H]1NC(=O)c1cnc(-c2ccccc2)s1 [Example 71, N-((3R,4S)-1-cyano-4-methylpyrrolidin-3-yl)-2-phenylthiazole-5-carboxamide]
9 | < 100 | C[C@@H]1CN(C#N)C[C@H]1NC(=O)c1cnc(-c2ccccc2)s1 [Example 72, N-((3S,4R)-1-cyano-4-methylpyrrolidin-3-yl)-2-phenylthiazole-5-carboxamide]
10 | 100 to 1000 | N#CN1CC[C@@H](NC(=O)c2ccnc(N3Cc4ccccc4C3)c2)C1 [Example 73, (R)—N-(1-cyanopyrrolidin-3-yl)-2-(isoindolin-2-yl)isonicotinamide]
11 | 100 to 1000 | N#CN1CC[C@@H](NC(=O)c2ccnc(N3CCc4ccccc4C3)c2)C1 [Example 74, (R)—N-(1-cyanopyrrolidin-3-yl)-2-(3,4-dihydroisoquinolin-2(1H)-yl)isonicotinamide]
12 | 100 to 1000 | Cc1cn(-c2ccc(C(=O)N[C@@H]3CCN(C#N)C3)c(F)c2)cn1 [Example 75, (R)—N-(1-cyanopyrrolidin-3-yl)-2-fluoro-4-(4-methyl-1H-imidazol-1-yl)benzamide]
13 | < 100 | Cn1cc(-c2ccc(C(=O)N[C@@H]3CCN(C#N)C3)cc2F)cn1 [Example 76, (R)-N-(1-cyanopyrrolidin-3-yl)-3-fluoro-4-(1-methyl-1H-pyrazol-4-yl)benzamide]
14 | < 100 | Cn1cc(-c2ccc(C(=O)N[C@@H]3CCN(C#N)C3)c(F)c2)cn1 [Example 77, (R)-N-(1-cyanopyrrolidin-3-yl)-2-fluoro-4-(1-methyl-1H-pyrazol-4-yl)benzamide]
15 | < 100 | Cn1cc(-c2cc(F)c(C(=O)N[C@@H]3CCN(C#N)C3)cc2F)cn1 [Example 78, (R)-N-(1-cyanopyrrolidin-3-yl)-2,5-difluoro-4-(1-methyl-1H-pyrazol-4-yl)benzamide]
16 | < 100 | Cc1nn(C)cc1-c1ccc(C(=O)N[C@@H]2CCN(C#N)C2)cc1F [Example 79, (R)-N-(1-cyanopyrrolidin-3-yl)-4-(1,3-dimethyl-1H-pyrazol-4-yl)-3-fluorobenzamide]
17 | < 100 | Cc1nn(C)cc1-c1ccc(C(=O)N[C@@H]2CCN(C#N)C2)c(F)c1 [Example 80, (R)-N-(1-cyanopyrrolidin-3-yl)-4-(1,3-dimethyl-1H-pyrazol-4-yl)-2-fluorobenzamide]

Row | IC50 [nM] | SMILES
18 | < 100 | CCn1cc(-c2ccc(C(=O)N[C@@H]3CCN(C#N)C3)c(F)c2)cn1 [Example 81, (R)-N-(1-cyanopyrrolidin-3-yl)-4-(1-ethyl-1H-pyrazol-4-yl)-2-fluorobenzamide]
19 | 100 to 1000 | COCCn1cc(-c2ccc(C(=O)N[C@@H]3CCN(C#N)C3)c(F)c2)cn1 [Example 82, (R)-N-(1-cyanopyrrolidin-3-yl)-2-fluoro-4-(1-(2-methoxyethyl)-1H-pyrazol-4-yl)benzamide]
20 | 100 to 1000 | Cn1cc(-c2ccc3nc(C(=O)N[C@@H]4CCN(C#N)C4)[nH]c3c2)cn1 [Example 83, (R)-N-(1-cyanopyrrolidin-3-yl)-6-(1-methyl-1H-pyrazol-4-yl)-1H-benzo[d]imidazole-2-carboxamide]
21 | 100 to 1000 | Cn1cc(-c2ccc3cc(C(=O)N[C@@H]4CCN(C#N)C4)[nH]c3c2)cn1 [Example 84, (R)-N-(1-cyanopyrrolidin-3-yl)-6-(1-methyl-1H-pyrazol-4-yl)-1H-indole-2-carboxamide]
22 | < 100 | N#CN1CC[C@@H](NC(=O)c2ccc(-c3cn[nH]c3C(F)(F)F)cc2F)C1 [Example 85, (R)-N-(1-cyanopyrrolidin-3-yl)-2-fluoro-4-(5-(trifluoromethyl)-1H-pyrazol-4-yl)benzamide]
23 | < 100 | Cn1ncc2cc(-c3ccc(C(=O)N[C@@H]4CCN(C#N)C4)c(F)c3)ccc21 [Example 86, (R)-N-(1-cyanopyrrolidin-3-yl)-2-fluoro-4-(1-methyl-1H-indazol-5-yl)benzamide]
24 | 100 to 1000 | CN(C(=O)c1ccc(-c2cnn(C)c2)c(F)c1)[C@@H]1CCN(C#N)C1 [Example 87, (R)-N-(1-cyanopyrrolidin-3-yl)-3-fluoro-N-methyl-4-(1-methyl-1H-pyrazol-4-yl)benzamide]
25 | 100 to 1000 | CN(C(=O)N1CC(Oc2ccccc2)C1)[C@@H]1CCN(C#N)C1 [Example 89, (R)—N-(1-cyanopyrrolidin-3-yl)-N-methyl-3-phenoxyazetidine-1-carboxamide]
26 | < 100 | N#CN1C[C@H]2CCN(C(=O)Nc3ccc(C(F)(F)F)cc3F)[C@H]2C1 [Example 90, (3aR,6aR)-5-cyano-N-(2-fluoro-4-(trifluoromethyl)phenyl)hexahydropyrrolo[3,4-b]pyrrole-1(2H)-carboxamide]
27 | < 100 | N#CN1CC[C@@H](NC(=O)c2ccc(Nc3ncccn3)cc2F)C1 [Example 91, (R)—N-(1-cyanopyrrolidin-3-yl)-2-fluoro-4-(pyrimidin-2-ylamino)benzamide]
28 | 1000 to 10000 | Cn1cc(-c2ccc(C(=O)NC3(C)CCN(C#N)C3)c(F)c2)cn1 (stereo not shown) [Example 94, N-(1-cyano-3-methylpyrrolidin-3-yl)-2-fluoro-4-(1-methyl-1H-pyrazol-4-yl)benzamide]
29 | < 100 | COc1ccc(-c2cc(C(=O)N[C@@H]3CCN(C#N)C3)n[nH]2)cc1 [Example 95, (R)-N-(1-cyanopyrrolidin-3-yl)-5-(4-methoxyphenyl)-1H-pyrazole-3-carboxamide]
30 | 100 to 1000 | N#CN1CC[C@@H](NC(=O)c2cc(-c3ccccn3)[nH]n2)C1 [Example 96, (R)-N-(1-cyanopyrrolidin-3-yl)-5-(pyridin-2-yl)-1H-pyrazole-3-carboxamide]
31 | < 100 | COc1ccccc1-c1cc(C(=O)N[C@@H]2CCN(C#N)C2)n[nH]1 [Example 97, (R)-N-(1-cyanopyrrolidin-3-yl)-5-(2-methoxyphenyl)-1H-pyrazole-3-carboxamide]
32 | < 100 | N#CN1CC[C@@H](NC(=O)c2cc(-c3ccccc3F)[nH]n2)C1 [Example 98, (R)-N-(1-cyanopyrrolidin-3-yl)-5-(2-fluorophenyl)-1H-pyrazole-3-carboxamide]
33 | < 100 | COc1ccc(-c2cc(C(=O)N[C@@H]3CCN(C#N)C3)on2)cc1 [Example 100, (R)-N-(1-cyanopyrrolidin-3-yl)-3-(4-methoxyphenyl)isoxazole-5-carboxamide]
34 | 100 to 1000 | N#CN1CC[C@@H](NC(=O)c2n[nH]c3ccccc23)C1 [Example 101, (R)-N-(1-cyanopyrrolidin-3-yl)-1H-indazole-3-carboxamide]

Row | SMILES | IC50 [nM]
35 | CN(C(=O)c1nc2ccc(-c3cnn(C)c3)cc2[nH]1)[C@@H]1CCN(C#N)C1 [Example 88, (R)-N-(1-cyanopyrrolidin-3-yl)-N-methyl-6-(1-methyl-1H-pyrazol-4-yl)-1H-benzo[d]imidazole-2-carboxamide] | 100 to 1000
36 | N#CN1CC[C@@H](NC(=O)c2ccc(N3CCOCC3)nc2)C1 [Example 99, (R)-N-(1-cyanopyrrolidin-3-yl)-6-morpholinonicotinamide] | 100 to 1000
37 | N#CN1CC[C@@H](NC(=O)c2cc(-c3ccccc3)[nH]n2)C1 [Example 102, (R)-N-(1-cyanopyrrolidin-3-yl)-phenyl-1H-pyrazole-3-carboxamide] | < 100
